Measured values from patent publication US20240336574A1 (LATIGO BIOTHERAPEUTICS, INC., priority 2021, published 2024).
Read-outs that look alike come from different tables or passages of the source.

Target: T1, recombinant human NaV1.8 stably transfected HEK cells (Homo sapiens, UniProt Q9Y5Y9)
T1 construct: expressed in transfected cells; host or cells: HEK cells, stably transfected
Test: Compound profiling on NaV1.8, human NaV1.8 cell line, SyncroPatch384PE automated patch clamp assay (Example 102, first set of compounds, Table 16)
Assay type: cell-based
Conditions: human NaV1.8 HEK cells, Table 16 (first set of compounds)
Outline: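 IC50s come from two read-outs: resting-state block (P1, 10 mV step from −120 mV) and inactivated-state block (P2, after 10 s at −40 mV), scaled between DMSO and 250 μM tetracaine. Compounds (20–0.001 μM final, 1:3 steps) were applied for 5 min, 15 s sweeps. Cells kept at 30 °C the day before.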

[1] = inactivated state block (P2 measurement), read-out: P2IC50
[2] = resting state block (P1 measurement), read-out: P1IC50

T1 sequence (Q9Y5Y9 whole entry): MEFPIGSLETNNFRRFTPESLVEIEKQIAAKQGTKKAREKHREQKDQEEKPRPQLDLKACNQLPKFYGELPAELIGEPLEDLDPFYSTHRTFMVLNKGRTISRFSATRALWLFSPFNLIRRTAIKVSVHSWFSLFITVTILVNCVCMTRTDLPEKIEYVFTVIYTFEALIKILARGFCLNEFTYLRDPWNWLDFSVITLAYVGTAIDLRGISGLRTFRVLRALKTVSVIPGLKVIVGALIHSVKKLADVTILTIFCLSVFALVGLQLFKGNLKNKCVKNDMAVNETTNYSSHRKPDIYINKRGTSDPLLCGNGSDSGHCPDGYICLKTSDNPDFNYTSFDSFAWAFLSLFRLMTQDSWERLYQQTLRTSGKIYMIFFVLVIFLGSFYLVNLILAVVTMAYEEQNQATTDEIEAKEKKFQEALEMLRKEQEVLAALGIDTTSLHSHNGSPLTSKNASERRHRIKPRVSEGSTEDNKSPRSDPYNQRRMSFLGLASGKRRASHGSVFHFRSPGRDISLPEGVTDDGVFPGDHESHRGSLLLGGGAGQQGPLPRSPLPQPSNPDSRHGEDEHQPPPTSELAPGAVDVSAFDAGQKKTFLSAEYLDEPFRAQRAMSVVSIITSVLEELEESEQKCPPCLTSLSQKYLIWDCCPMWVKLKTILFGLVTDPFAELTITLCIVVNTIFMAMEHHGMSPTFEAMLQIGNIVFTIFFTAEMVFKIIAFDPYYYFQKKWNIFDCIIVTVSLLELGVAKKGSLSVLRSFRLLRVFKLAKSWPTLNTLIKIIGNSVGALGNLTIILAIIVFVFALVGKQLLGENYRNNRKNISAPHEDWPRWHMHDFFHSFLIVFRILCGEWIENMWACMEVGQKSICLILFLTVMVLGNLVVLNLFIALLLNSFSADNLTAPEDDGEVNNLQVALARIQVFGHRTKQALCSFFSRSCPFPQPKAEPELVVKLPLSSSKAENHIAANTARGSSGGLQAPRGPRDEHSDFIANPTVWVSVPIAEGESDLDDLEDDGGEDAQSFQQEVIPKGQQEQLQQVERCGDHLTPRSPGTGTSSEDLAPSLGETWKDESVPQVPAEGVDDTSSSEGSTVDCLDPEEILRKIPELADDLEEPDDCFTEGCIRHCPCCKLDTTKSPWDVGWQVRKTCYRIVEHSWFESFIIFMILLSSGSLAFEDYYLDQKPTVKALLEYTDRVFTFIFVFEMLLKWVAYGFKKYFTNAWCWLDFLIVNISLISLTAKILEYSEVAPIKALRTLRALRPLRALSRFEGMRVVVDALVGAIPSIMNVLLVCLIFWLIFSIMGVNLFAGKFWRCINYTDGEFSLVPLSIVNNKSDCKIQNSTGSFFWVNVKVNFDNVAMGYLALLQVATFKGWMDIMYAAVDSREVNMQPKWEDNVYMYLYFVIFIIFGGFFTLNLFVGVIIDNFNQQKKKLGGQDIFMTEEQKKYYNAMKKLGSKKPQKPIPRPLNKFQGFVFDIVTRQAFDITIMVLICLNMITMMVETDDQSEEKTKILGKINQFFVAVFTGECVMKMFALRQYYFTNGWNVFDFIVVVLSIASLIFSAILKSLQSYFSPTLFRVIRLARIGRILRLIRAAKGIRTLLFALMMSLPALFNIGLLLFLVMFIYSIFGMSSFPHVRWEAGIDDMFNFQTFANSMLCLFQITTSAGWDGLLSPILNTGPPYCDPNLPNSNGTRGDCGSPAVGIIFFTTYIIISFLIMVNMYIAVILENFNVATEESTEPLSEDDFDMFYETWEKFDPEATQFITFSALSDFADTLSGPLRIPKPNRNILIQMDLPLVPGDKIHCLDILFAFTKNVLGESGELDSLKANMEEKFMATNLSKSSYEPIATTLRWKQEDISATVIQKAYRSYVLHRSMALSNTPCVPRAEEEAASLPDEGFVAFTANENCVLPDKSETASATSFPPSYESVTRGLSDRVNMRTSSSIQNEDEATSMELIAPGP

Q: How did the IC50 [1] turn out when `COc1cc(C#N)ccc1Oc1nnc(C(F)(F)F)c(C)c1C(=O)Nc1cccc(C(=O)N2CC(C#N)C2)c1` [Compound 1442, N-[3-(3-cyanoazetidine-1-carbonyl)phenyl]-3-(4-cyano-2-methoxy-phenoxy)-5-methyl-6-(trifluoromethyl)pyridazine-4-carboxamide] was run?
A: The IC50 was 0.2 to 0.5 µM.

Q: What about the IC50 [2] of the same compound?
A: Its IC50 is 0.2 to 0.5 µM.

Q: For `CS(=O)(=O)c1cccc(NC(=O)c2cc(C(F)(F)F)cnc2OCC2CC2(F)F)c1` (stereo not drawn) [Compound 1659], which IC50 [1] is on record?
A: The IC50 was 0.04 to 0.2 µM.

Q: What about the IC50 [2] of the same compound?
A: The IC50 was 0.04 to 0.2 µM.

Q: What does the source list for `COc1cc(C#N)ccc1Oc1nnc(-c2ccc(C#N)cc2)c(C)c1C(=O)Nc1cccc(S(C)(=N)=O)c1` (stereo not drawn) [Compound 1446, 3-(4-cyano-2-methoxy-phenoxy)-6-(4-cyanophenyl)-5-methyl-N-[3-(methylsulfonimidoyl)phenyl]pyridazine-4-carboxamide]?
A: IC50 [1]: 0.02 to 0.04 µM; IC50 [2]: 0.02 to 0.04 µM

Q: Which results are given for `NC(=O)c1ccc(NC(=O)c2cc(C(F)(F)F)cnc2Oc2ccc(C(F)F)nc2)cc1` [Compound 1676]?
A: IC50 [1]: 0.2 to 0.5 µM; IC50 [2]: 0.2 to 0.5 µM

Q: Which IC50 [1] does the source give for `CSc1cccc(NC(=O)c2cc(C#N)cnc2Oc2ccc(F)cc2C)c1` [Compound 1579] here?
A: The IC50 was 0.2 to 0.5 µM.

Q: What about the IC50 [2] of the same compound?
A: Its IC50 is 0.2 to 0.5 µM.

Q: How did the IC50 [1] turn out when `CC(C#N)Oc1cc(F)c(Oc2ncc(C(F)(F)F)cc2C(=O)Nc2cccc(C(N)=O)c2)cc1F` (stereo not drawn) [Compound 1687] was run?
A: Its IC50 is 0.2 to 0.5 µM.

Q: And the IC50 [2]?
A: The IC50 was 0.2 to 0.5 µM.

Q: With `CS(=O)(=O)c1cccc(NC(=O)c2cc(C(F)(F)F)cnc2Oc2cncc3ccccc23)c1` [Compound 1581] as the compound, how does the IC50 [1] read?
A: Its IC50 is 0.2 to 0.5 µM.

Q: What about the IC50 [2] of the same compound?
A: Its IC50 is 0.2 to 0.5 µM.

Q: How did the IC50 [1] turn out when `COc1cc(C#N)ccc1Oc1nnc(-c2cccc(C#N)c2)c(C)c1C(=O)Nc1cccc(S(C)(=N)=O)c1` (stereo not drawn) [Compound 1451, 3-(4-cyano-2-methoxy-phenoxy)-6-(3-cyanophenyl)-5-methyl-N-[3-(methylsulfonimidoyl)phenyl]pyridazine-4-carboxamide] was run?
A: Its IC50 is 0.2 to 0.5 µM.

Q: What about the IC50 [2] of the same compound?
A: Its IC50 is 0.2 to 0.5 µM.

Q: `COc1ccc(Oc2nnc(C(F)(F)F)c(C)c2C(=O)Nc2cccc(S(C)(=N)=O)c2)c(C)n1` (stereo not drawn) [Compound 1507, N-{3-[imino(methyl)oxo-λ^6-sulfanyl]phenyl}-3-[(6-methoxy-2-methylpyridin-3-yl)oxy]-5-methyl-6-(trifluoromethyl)pyridazine-4-carboxamide] was tested. Which IC50 [1] did it give?
A: The IC50 was 0.04 to 0.2 µM.

Q: What about the IC50 [2] of the same compound?
A: Its IC50 is 0.04 to 0.2 µM.

Q: For `COc1c(Oc2nnc(C(F)(F)F)c(C)c2C(=O)Nc2cccc(S(C)(=O)=O)c2)ccc(F)c1F` [Compound 1425], which IC50 [1] is on record?
A: The IC50 was no more than 0.02 µM.

Q: And the IC50 [2]?
A: The IC50 was no more than 0.02 µM.

Q: Which results are given for `COC(=O)c1cccc(NC(=O)c2c(Oc3ccc(C#N)cc3OC)nnc(C(F)(F)F)c2C)c1` [Compound 1546, methyl 3-[[3-(4-cyano-2-methoxy-phenoxy)-5-methyl-6-(trifluoromethyl)pyridazine-4-carbonyl]amino]benzoate]?
A: IC50 [1]: 0.04 to 0.2 µM; IC50 [2]: 0.04 to 0.2 µM

Q: Which results are given for `Cc1cc(OC(F)(F)F)ccc1Oc1ncc(C(F)(F)F)cc1C(=O)Nc1cccc(S(C)(=O)=O)c1` [Compound 1573, N-(3-methylsulfonylpheny1)-2-[2-methyl-4-(trifluoromethoxy)phenoxy]-5-(trifluoromethyl)pyridine-3-carboxamide]?
A: IC50 [1]: ≤ 0.02 µM; IC50 [2]: ≤ 0.02 µM

Q: `CS(=N)(=O)c1cccc(NC(=O)c2cc(C(F)(F)F)cnc2Oc2ccc(-c3ccccc3)cc2)c1` (stereo not drawn) [Compound 1585] was tested. Which IC50 [1] did it give?
A: The IC50 was 0.2 to 0.5 µM.

Q: And the IC50 [2]?
A: Its IC50 is 0.2 to 0.5 µM.

Q: Which results are given for `Cc1c(Oc2nnc(C(F)(F)F)c(C)c2C(=O)Nc2cccc(S(C)(=N)=O)c2)ccc(Cl)c1F` (stereo not drawn) [Compound 1486, 3-(4-chloro-3-fluoro-2-methyl-phenoxy)-5-methyl-N-[3-(methylsulfonimidoyl)phenyl]-6-(trifluoromethyl)pyridazine-4-carboxamide]?
A: IC50 [1]: ≤ 0.02 µM; IC50 [2]: ≤ 0.02 µM

Q: Which results are given for `Cc1nc(OC2CCC2)ccc1Oc1ncc(C(F)(F)F)cc1C(=O)Nc1cccc(C(N)=O)c1` [Compound 1565, N-(3-carbamoylphenyl)-2-[[6-(cyclobutoxy)-2-methyl-3-pyridyl]oxy]-5-(trifluoromethyl)pyridine-3-carboxamide]?
A: IC50 [1]: 0.2 to 0.5 µM; IC50 [2]: 0.2 to 0.5 µM

Q: How did the IC50 [1] turn out when `COc1cc(C#N)ccc1Oc1nc(C(F)(F)F)cc(C)c1C(=O)Nc1cccc([S@](C)(=N)=O)c1` [Compound 1730, (R)-2-(4-cyano-2-methoxyphenoxy)-4-methyl-N-(3-(S-methylsulfonimidoyl)phenyl)-6-(trifluoromethyl)nicotinamide] was run?
A: The IC50 was no more than 0.02 µM.

Q: And the IC50 [2]?
A: Its IC50 is no more than 0.02 µM.

Q: What does the source list for `COc1ccc(Oc2ncc(C(F)(F)F)cc2C(=O)Nc2cccc(S(C)(=N)=O)c2)cc1F` (stereo not drawn) [Compound 1640]?
A: IC50 [1]: 0.2 to 0.5 µM; IC50 [2]: 0.2 to 0.5 µM

Q: With `N#CC1CC(Oc2ncc(C(F)(F)F)cc2C(=O)Nc2cccc(C(N)=O)c2)C1` (mixture of isomers) [Compound 1668] as the compound, how does the IC50 [1] read?
A: Its IC50 is 0.2 to 0.5 µM.

Q: What about the IC50 [2] of the same compound?
A: The IC50 was 0.2 to 0.5 µM.

Q: Which IC50 [1] does the source give for `COc1cc(F)ccc1Oc1nnc(C(F)(F)F)c(OC)c1C(=O)Nc1cccc([S@@](C)(=N)=O)c1` [Compound 1517, (S)-3-(4-fluoro-2-methoxyphenoxy)-5-methoxy-N-(3-(S-methylsulfonimidoyl)phenyl)-6-(trifluoromethyl)pyridazine-4-carboxamide] here?
A: Its IC50 is 0.02 to 0.04 µM.

Q: What about the IC50 [2] of the same compound?
A: The IC50 was no more than 0.02 µM.

Q: With `COc1ccc(-c2nnc(Oc3ccc(C#N)cc3OC)c(C(=O)Nc3cccc([S@@](C)(=N)=O)c3)c2C)cc1` [Compound 1536, 3-(4-cyano-2-methoxyphenoxy)-N-{3-[(S)-imino(methyl)oxo-λ^6-sulfanyl]phenyl}-6-(4-methoxyphenyl)-5-methylpyridazine-4-carboxamide] as the compound, how does the IC50 [1] read?
A: The IC50 was 0.04 to 0.2 µM.

Q: And the IC50 [2]?
A: Its IC50 is 0.04 to 0.2 µM.

Q: What does the source list for `COc1c(Oc2nc(C(F)(F)F)ccc2C(=O)Nc2cccc(S(C)(=N)=O)c2)ccc(F)c1F` (stereo not drawn) [Compound 1729, 2-(3,4-difluoro-2-methoxy-phenoxy)-N-[3-(methylsulfonimidoyl)phenyl]-6-(trifluoromethyl)pyridine-3-carboxamide]?
A: IC50 [1]: ≤ 0.02 µM; IC50 [2]: ≤ 0.02 µM

Q: How did the IC50 [1] turn out when `Cc1nc(C#N)ccc1Oc1ncc(C(F)(F)F)cc1C(=O)Nc1cccc(S(C)(=O)=O)c1` [Compound 1693] was run?
A: Its IC50 is no more than 0.02 µM.

Q: What about the IC50 [2] of the same compound?
A: The IC50 was no more than 0.02 µM.

Q: How did the IC50 [1] turn out when `COc1cc(C#N)ccc1Oc1nnc(-c2cnc(C)s2)c(C)c1C(=O)Nc1cccc(S(C)(=N)=O)c1` (stereo not drawn) [Compound 1449, 3-(4-cyano-2-methoxy-phenoxy)-5-methyl-N-[3-(methylsulfonimidoyl)phenyl]-6-(2-methylthiazol-5-yl)pyridazine-4-carboxamide] was run?
A: The IC50 was 0.2 to 0.5 µM.

Q: What about the IC50 [2] of the same compound?
A: Its IC50 is 0.2 to 0.5 µM.

Q: What does the source list for `Cc1c(C(F)(F)F)nnc(Oc2ccc(Cl)cc2)c1C(=O)Nc1cccc(S(C)(=N)=O)c1` (stereo not drawn) [Compound 22]?
A: IC50 [1]: 0.04 to 0.2 µM; IC50 [2]: 0.02 to 0.04 µM

Q: For `Cc1cc(F)ccc1Oc1nnc(C(F)(F)F)c(C)c1C(=O)Nc1cccc(S(C)(=N)=O)c1` (stereo not drawn) [Compound 20, 3-(4-Fluoro-2-methylphenoxy)-5-methyl-N-(3-(S-methylsulfonimidoyl)phenyl)-6-(trifluoromethyl)pyridazine-4-carboxamide], which IC50 [1] is on record?
A: The IC50 was 0.02 to 0.04 µM.

Q: And the IC50 [2]?
A: The IC50 was no more than 0.02 µM.

Q: How did the IC50 [1] turn out when `Cc1cc(F)ccc1Oc1nnc(C(F)(F)F)c(-c2cnn(C)c2)c1C(=O)Nc1cccc([S@@](C)(=N)=O)c1` [Compound 1521, (S)-3-(4-fluoro-2-methylphenoxy)-5-(1-methyl-1H-pyrazol-4-yl)-N-(3-(S-methylsulfonimidoyl)phenyl)-6-(trifluoromethyl)pyridazine-4-carboxamide] was run?
A: Its IC50 is 0.2 to 0.5 µM.

Q: What about the IC50 [2] of the same compound?
A: The IC50 was 0.2 to 0.5 µM.

Q: Which IC50 [1] does the source give for `Cc1c(Oc2nnc(C(F)(F)F)c(C)c2C(=O)Nc2cccc(S(C)(=O)=O)c2)ccc(Cl)c1F` [Compound 1421] here?
A: The IC50 was no more than 0.02 µM.

Q: And the IC50 [2]?
A: Its IC50 is no more than 0.02 µM.

Q: How did the IC50 [1] turn out when `Cc1cc(F)ccc1Oc1nnc(C(F)(F)F)c(C)c1C(=O)Nc1ccnc(C(N)=O)c1` [Compound 1408] was run?
A: Its IC50 is 0.04 to 0.2 µM.

Q: What about the IC50 [2] of the same compound?
A: Its IC50 is 0.04 to 0.2 µM.

Q: For `Cc1nc(Br)ccc1Oc1ncc(C(F)(F)F)cc1C(=O)Nc1cccc(S(C)(=N)=O)c1` (stereo not drawn) [Compound 1684], which IC50 [1] is on record?
A: Its IC50 is no more than 0.02 µM.

Q: What about the IC50 [2] of the same compound?
A: The IC50 was no more than 0.02 µM.

Q: With `COc1cc(C#N)ccc1Oc1nnc(-c2ccc(C#N)cc2)c(C)c1C(=O)Nc1cccc([S@](C)(=N)=O)c1` [Compound 1531, (R)-3-(4-cyano-2-methoxyphenoxy)-6-(4-cyanophenyl)-5-methyl-N-(3-(S-methylsulfonimidoyl)phenyl)pyridazine-4-carboxamide] as the compound, how does the IC50 [1] read?
A: Its IC50 is 0.04 to 0.2 µM.

Q: And the IC50 [2]?
A: The IC50 was 0.04 to 0.2 µM.

Q: Which results are given for `Cc1cc(F)ccc1Oc1ncc(C(F)(F)F)cc1C(=O)Nc1cccc(S(C)(=O)=O)c1` [Compound 1574, 2-(4-fluoro-2-methyl-phenoxy)-N-(3-methylsulfonylphenyl)-5-(trifluoromethyl)pyridine-3-carboxamide]?
A: IC50 [1]: ≤ 0.02 µM; IC50 [2]: ≤ 0.02 µM

Q: `COc1cc(C#N)ccc1Oc1nnc(-c2ccccc2F)c(C)c1C(=O)Nc1cccc([S@](C)(=N)=O)c1` [Compound 1537, 3-(4-cyano-2-methoxyphenoxy)-6-(2-fluorophenyl)-N-{3-[(R)-imino(methyl)oxo-λ^6-sulfanyl]phenyl}-5-methylpyridazine-4-carboxamide] was tested. Which IC50 [1] did it give?
A: Its IC50 is 0.02 to 0.04 µM.

Q: And the IC50 [2]?
A: The IC50 was 0.02 to 0.04 µM.

Q: What does the source list for `CS(=N)(=O)c1cccc(NC(=O)c2cc(C(F)(F)F)cnc2Oc2ccc(OC(F)F)c(F)c2)c1` (stereo not drawn) [Compound 1644]?
A: IC50 [1]: ≤ 0.02 µM; IC50 [2]: ≤ 0.02 µM

Q: Which results are given for `Cc1cc(F)ccc1Oc1nnc(C(F)(F)F)c(N2CCCCC2)c1C(=O)Nc1cccc([S@@](C)(=N)=O)c1` [Compound 1732, (S)-3-(4-fluoro-2-methylphenoxy)-N-(3-(S-methylsulfonimidoyl)phenyl)-5-(piperidin-1-yl)-6-(trifluoromethyl)pyridazine-4-carboxamide]?
A: IC50 [1]: 0.2 to 0.5 µM; IC50 [2]: 0.2 to 0.5 µM

Q: Which IC50 [1] does the source give for `Cc1nc(F)ccc1Oc1ncc(C(F)(F)F)c(C)c1C(=O)Nc1cccc([S@](C)(=N)=O)c1` [Compound 1559, (R)-2-((6-fluoro-2-methylpyridin-3-yl)oxy)-4-methyl-N-(3-(S-methylsulfonimidoyl)phenyl)-5-(trifluoromethyl)nicotinamide] here?
A: The IC50 was no more than 0.02 µM.

Q: What about the IC50 [2] of the same compound?
A: The IC50 was no more than 0.02 µM.

Q: Which IC50 [1] does the source give for `COc1cc(C#N)ccc1Oc1nnc(C(F)(F)F)c(C)c1C(=O)Nc1ccc(C(N)=O)cc1` [Compound 1405] here?
A: Its IC50 is no more than 0.02 µM.

Q: And the IC50 [2]?
A: Its IC50 is no more than 0.02 µM.
